Measured values from patent US4939175A, “Use of N,N-dimethyl-1-[1-(4-chlorophenyl)cyclobutyl]-3-methylbutylamine” (priority 1988, dated 1990).
Read-outs that look alike come from different tables or passages of the source.

How the values were obtained:
[1] = tested on: memory defect artificially induced by electroconvulsive shock in mice; test: Memory defect artificially induced by electroconvulsive shock in mice (step-through test); type: in vivo, C 57 BL/6 male mice; details: ECS +; for Number of mice showing latency longer than 300 seconds: 1 hour before testing trial, 10 mice; for Amnestic syndrome rate: control ECS + 80, ECS - 40
Experimental: […]. The test was carried out by using a box divided into two rooms (light and dark). The dark room (23.5 cm in height, 12 cm in width and 24 cm in length) was surrounded by black inner walls and provided with a stainless steel bar on the floor to give the mouse an electric shock. The light room (triangular in shape with 15 cm in height, 13 cm in bottom side length and 12 cm in oblique-side length) was surrounded by transparent walls except for the partition wall, provided with a guillotine door (5 cm in height and 3 cm in width) at the center of the partition wall, and illuminated with a 100 Watt electric bulb at a position of 50 cm above the floor.
The test was carried out according to the procedures as follows:
After the mouse was put in the light room, the guillotine door was opened. When the limbs of the mouse entered into the dark room, the door was closed. After keeping the mouse for 10 seconds in the dark room, it was brought back to the home cage.
The mouse was put in the light room at the time of 30 minutes after the taming trial, and then the guillotine door was opened. When the limbs of the mouse entered into the dark room, the door was closed and 0.4 mA of electric shock was applied to the limbs of the mouse for 3 seconds. Then, the mouse was brought back to the home cage.
The mouse was put in the light room at the time of 24 hours after the acquisition trial, and then the guillotine door was opened.
Electroconvulsive shock (30 mA, 0.5 second) was applied to the mouse at its ears immediately after the acquisition trial, which caused tetany on the mouse. The mice, which survived after the righting reflex had disappeared,were subjected to the testing trial 24 hours later.
The test compound was dissolved in distilled water, and the solution was orally administered, in a dose shown in Table 1 to each group consisting of 10 heads at the time of one hour before the testing trial.
The testing trial (3) was conducted at one hour after the test compound administration, and the reaction latency was examined for each test mouse. The obtained results are shown in Table 1, and Amnestic syndrome rate (%) is expressed as follows: [formula]

[2] = tested on: re-uptake of ^3 H-dopamine; test: Re-uptake of 3H-dopamine in vitro (synaptosomes, P2 fraction of whole brain); type: biochemical, Std: Wistar strain male rat; details: Experiment I, rat brain synaptosomes, 37° C., 20 minutes
Experimental: Effect of the test samples on the re-uptake of ^3 H-dopamine in vitro
P2 fraction was prepared from the whole brain of Std: Wistar strain male rat. […] The obtained mixture was incubated at 37° C. for 20 minutes and then subjected to the suction filtration with Whatman GF/B filter paper.
The obtained filter paper was put in a vial containing 10 ml of toluene type scintillator and its radioactivity was measured by means of liquid scintillation counter. The amount of the specific re-uptake of ^3 H-dopamine was obtained by subtracting the amount of re-uptake at 0° C. as blank.

[3] = tested on: depletion of norepinephrine induced by 6-hydroxydopamine in rat heart; test: Depletion of norepinephrine induced by 6-hydroxydopamine in rat heart; type: in vivo, Std: Wistar male rats; details: 6-hydroxydopamine 20 mg/kg i.p., control 20 ± 4, non-treatment 425 ± 49, **p < 0.01
Experimental: Effect of the test samples on the depletion of norepinephrine induced by 6-hydroxydopamine in rat heart.
The test sample was administered orally to Std: Wistar male rats and after 30 minutes, 6-hydroxydopamine (20 mg/kg) was injected intraperitoneally.
At 16 hours after injection of 6-hydroxydopamine, the rats were killed. The whole heart was rapidly removed and homogenized in 0.05M perchloric acid with isoproterenol (10 mg/ml) as an internal standard. The homogenate was centrifuged and then the amount of norepinephrine in the supernatant was determined by means of high performance liquid chromatography with electrochemical detection.
Desipramine was used as the reference drug and distilled water was used as control sample.

[4] = tested on: depletion of serotonin induced by p-chloroamphetamine; test: Depletion of serotonin (5-HT) induced by p-chloroamphetamine (whole brain); type: in vivo, SlC:ddy mice; details: p-chloroamphetamine 10 mg/kg i.p., control 48 ± 6, **p < 0.01
Experimental: Effect of the test samples on the depletion of serotonin (hereinafter referred to as "5-HT") induced by p-chloroamphetamine
The test sample was administered orally to SlC:ddy made mice and after 60 minutes, p-chloroamphetamine (10 mg/kg) was injected intraperitoneally.
At 6 hours later, the mice were decapitated. The whole brain was rapidly removed and homogenized in 0.06M perchloric acid with N-methylserotonin (10 μg/ml) as an internal standard. The homogenate was centrifuged and then the amount of 5-HT in the supernatant was determined by high performance liquid chromatography with electrochemical detection.
Amitriptyline was used as the reference drug and distilled water was used as control sample.

[5] = tested on: circling behavior in rats with unilateral substantia nigra lesions; test: Circling behavior in rats with unilateral substantia nigra lesions; type: in vivo, Std: Wistar male rats; details: 2 hours after, control 0.1 ± 0.4, **p < 0.01
Experimental: Effect of the test samples on circling behavior in rats with unilateral substantia nigra lesions
Std: Wistar male rats (8 heads/group) were used. The rat with unilateral substantia nigra lesions was made by injecting 8 μg/4 μl of 6-hydroxydopamine to the right side of substantia nigra.
The test sample was administered orally to the rat. At 2 hours later, the number of circling behavior per 10 minutes was counted.
Amantadine was used as the reference drug and distilled water was used as control sample.

[6] = tested on: sleeping time induced by thiopental; test: Sleeping time induced by thiopental; type: in vivo, Std: Wistar male rats; details: thiopental 40 mg/kg i.v., control 500.8 ± 12.0, **p < 0.01
Experimental: Effect of the test samples on the sleeping time induced by thiopental
The test sample was administered orally to Std: Wistar male rats, and at 60 minutes later, sodium thiopental (40 mg/kg) was injected intravenously.
The duration of sleeping time was determined as the time period between the injection of thiopental and return of the righting reflex.
Distilled water was used as control sample.

[7] = Acute toxicity, oral, mice; parameters: species or system SlC:ddy male mice; details: mouse, in vivo, read-out: Number of dead mice per 10 mice
Experimental: SlC:ddy male mice (10 heads/group) were used.
After the oral administration of the test smaple, desipramine was used as the test drug, to the mice, the number of the dead mice was counted at 0.5, 1, 2, 4, 18 and 24 hours respectively after the oral administration.

With CC(C)CC(N(C)C)C1(c2ccc(Cl)cc2)CCC1.Cl (stereo not drawn) [Test compound, N,N-dimethyl-1-[1-(4-chlorophenyl)cyclobutyl]3-methylbutylamine hydrochloride] the “Number of mice showing latency longer than 300 seconds” value ([1]; 0.3 mg/kg oral) was 4, the Amnestic syndrome rate ([1]; 0.3 mg/kg oral) was 60% and the “Number of mice showing latency longer than 300 seconds” value ([1]; 1.0 mg/kg oral) was 3. For the same compound, the Amnestic syndrome rate ([1]; 1.0 mg/kg oral) was 70%, the “Number of mice showing latency longer than 300 seconds” value ([1]; 3.0 mg/kg oral) was 7 and the Amnestic syndrome rate ([1]; 3.0 mg/kg oral) was 30%. For the same compound, the “Number of mice showing latency longer than 300 seconds” value ([1]; 10.0 mg/kg oral) was 9, the Amnestic syndrome rate ([1]; 10.0 mg/kg oral) was 10% and the IC50 [2] was 2000 nM. The “Amount of Norepinephrine” value ([3]; 0.625 mg/kg oral) was 169 ± 34 ng/g, the “Amount of Norepinephrine” value ([3]; 1.25 mg/kg oral) was 247 ± 49 ng/g and the “Amount of Norepinephrine” value ([3]; 2.5 mg/kg oral) was 306 ± 27 ng/g. For the same compound, the “Percentages of the amount of 5-HT in the treated group against the amount of 5-HT in the non-treated group” value ([4]; 3 mg/kg oral) was 64 ± 8%, the “Percentages of the amount of 5-HT in the treated group against the amount of 5-HT in the non-treated group” value ([4]; 10 mg/kg oral) was 103 ± 10% and the “Number of circling behavior per 10 min.” value ([5]; 3 mg/kg oral) was 3.0 ± 2.9 per 10 min. For the same compound, the “Number of circling behavior per 10 min.” value ([5]; 10 mg/kg oral) was 5.1 ± 4.4 per 10 min, the Sleeping time ([6]; 10 mg/kg oral) was 345.6 ± 82.2 s and the Sleeping time ([6]; 30 mg/kg oral) was 338.5 ± 43.7 s. It also gave a mortality at 0.5 h ([7]; 200 mg/kg oral) of 0%, a mortality at 1 h ([7]; 200 mg/kg oral) of 10% and a mortality at 2 h ([7]; 200 mg/kg oral) of 10%. The mortality at 4 h ([7]; 200 mg/kg oral) was 10%, the mortality at 18 h ([7]; 200 mg/kg oral) was 20% and the mortality at 24 h ([7]; 200 mg/kg oral) was 20%. For the same compound, the mortality at 0.5 h ([7]; 800 mg/kg oral) was 40%, the mortality at 1 h ([7]; 800 mg/kg oral) was 50% and the mortality at 2 h ([7]; 800 mg/kg oral) was 50%. The mortality at 4 h ([7]; 800 mg/kg oral) was 60%, the mortality at 18 h ([7]; 800 mg/kg oral) was 90% and the mortality at 24 h ([7]; 800 mg/kg oral) was 90%.
